Experimental data published in US12240840B2, “Amide-substituted heterocyclic compounds for the treatment of conditions related to the modulation of IL-12, IL-23 and/or IFN-alpha” (BRISTOL-MYERS SQUIBB COMPANY, priority 2018, dated 2025).
pIC50: −log10 of the molar value.

The compounds below were run on IFNα-induced pSTAT5 (pY694) in CD3 positive cells of human whole blood (assay: IFNα-Induced STAT Phosphorylation in Human Whole Blood). Details: Homo sapiens, 1 h compound incubation, 1000 U/mL recombinant human IFNα A/D for 15 min, pSTAT5 in CD3 positive population, read-out: Human WB IFNα-Induced Stat Phosph. (IC50).
Assay type: cell-based
Protocol: IFNα-Induced STAT Phosphorylation in Human Whole Blood
After an hour long incubation with compound, human whole blood (drawn with either EDTA or ACD-A as anti-coagulant) was stimulated with 1000 U/mL recombinant human IFNα A/D (R&D Systems 11200-2) for 15 min. The stimulation was stopped by adding Fix/Lyse buffer (BD 558049). Cells were stained with a CD3 FITC antibody (BD 555916), washed, and permeabilized on ice using Perm III buffer (BD 558050). Cells were then stained with an Alexa-Fluor 647 pSTAT5 (pY694) antibody (BD 612599) for 30 min prior to analysis on the FACS Canto II. The amount of pSTAT5 expression was quantitated by median fluorescence intensity after gating on the CD3 positive population.
IFNα-Induced STAT Phosphorylation in Human Whole Blood Inhibition Data ND—no data available

First: [2H]C([2H])([2H])NC(=O)c1nnc(NC(=O)C2CC2)cc1Nc1cccc(-c2nc(CC(C)C)no2)c1OC [Example 122]
Second: [2H]C([2H])([2H])NC(=O)c1nnc(NC(=O)C2CC2)cc1Nc1cccc(-c2nc(CN)no2)c1OC [Example 143]
The pIC50 of the first is lower: under 5.00 for the first, 6.49 for the second.

First: [2H]C([2H])([2H])NC(=O)c1nnc(NC(=O)C2CC2)cc1Nc1cccc(-c2nc(-c3ccccc3)no2)c1OC [Example 123]
Second: [2H]C([2H])([2H])NC(=O)c1nnc(NC(=O)C2CC2)cc1Nc1cccc(-c2nc(COCc3ccccc3)no2)c1OC [Example 144]
The pIC50 of the first is lower: under 5.00 for the first, 6.00 for the second.

Compared with `[2H]C([2H])([2H])NC(=O)c1nnc(NC(=O)C2CC2)cc1Nc1cccc(-c2nc(CN3CCOCC3)no2)c1OC` [Example 124], `[2H]C([2H])([2H])NC(=O)c1nnc(NC(=O)C2CC2)cc1Nc1cccc(-c2nc(CN3CCNCC3)no2)c1OC` [Example 126] is 0.48 log units lower in pIC50: 6.68 for the first, 6.20 for the second.

First: [2H]C([2H])([2H])NC(=O)c1cnc(NC(=O)C2CC2)cc1Nc1cccc(-c2nc(CN3CCOCC3)no2)c1OC [Example 125]
Second: [2H]C([2H])([2H])NC(=O)c1nnc(NC(=O)C2CC2)cc1Nc1cccc(-c2nc(CN3CCN(S(C)(=O)=O)CC3)no2)c1OC [Example 128]
The pIC50 of the first is 0.30 log units lower: 7.22 for the first, 7.52 for the second.

`[2H]C([2H])([2H])NC(=O)c1nnc(NC(=O)C2CC2)cc1Nc1cccc(-c2nc(CN3CCN(C(=O)COC)CC3)no2)c1OC` [Example 127] and `[2H]C([2H])([2H])NC(=O)c1nnc(NC(=O)C2CC2)cc1Nc1cccc(-c2nc(CN3CCN(C(=O)OC)CC3)no2)c1OC` [Example 138] are within 0.2 log units of each other in pIC50: 6.59 for the first, 6.74 for the second.

`[2H]C([2H])([2H])NC(=O)c1nnc(NC(=O)C2CC2)cc1Nc1cccc(-c2nc(CN3CCN(C(=O)C=C)CC3)no2)c1OC` [Example 129] and `[2H]C([2H])([2H])NC(=O)c1nnc(NC(=O)C2CC2)cc1Nc1cccc(-c2nc(CN3CCN(C(=O)C4CC4)CC3)no2)c1OC` [Example 132] are within 0.2 log units of each other in pIC50: 6.59 for the first, 6.52 for the second.

`[2H]C([2H])([2H])NC(=O)c1nnc(NC(=O)C2CC2)cc1Nc1cccc(-c2nc(CN3CCN(C(=O)c4ccccn4)CC3)no2)c1OC` [Example 130] and `[2H]C([2H])([2H])NC(=O)c1nnc(NC(=O)C2CC2)cc1Nc1cccc(-c2nc(CN3CCN(C(=O)c4cccnc4)CC3)no2)c1OC` [Example 131] are within 0.2 log units of each other in pIC50: 6.31 for the first, 6.13 for the second.

`[2H]C([2H])([2H])NC(=O)c1nnc(NC(=O)C2CC2)cc1Nc1cccc(-c2nc(CN3CCN(C(=O)C4(C#N)CC4)CC3)no2)c1OC` [Example 133] and `[2H]C([2H])([2H])NC(=O)c1nnc(NC(=O)C2CC2)cc1Nc1cccc(-c2nc(CN3CCN(C(=O)CC#N)CC3)no2)c1OC` [Example 134] are within 0.2 log units of each other in pIC50: 7.00 for the first, 6.96 for the second.

`[2H]C([2H])([2H])NC(=O)c1nnc(NC(=O)C2CC2)cc1Nc1cccc(-c2nc(CN3CCN(C(=O)OC(C)(C)C)CC3)no2)c1OC` [Example 135] and `[2H]C([2H])([2H])NC(=O)c1nnc(NC(=O)C2CC2)cc1Nc1cccc(-c2nc(CN3CCN(C(=O)OC(C)(C)C)CC3=O)no2)c1OC` [Example 137] are within 0.2 log units of each other in pIC50: 5.70 for the first, 5.58 for the second.

Going from `[2H]C([2H])([2H])NC(=O)c1nnc(NC(=O)C2CC2)cc1Nc1cccc(-c2nc(CN3CCN(C(=O)NCC)CC3)no2)c1OC` [Example 136] to `[2H]C([2H])([2H])NC(=O)c1nnc(NC(=O)C2CC2)cc1Nc1cccc(-c2nc(CN3CCN(C(C)=O)CC3=O)no2)c1OC` [Example 140], the pIC50 rises from 5.95 to 6.48 (0.53 log units). The second is the more potent here.

Going from `[2H]C([2H])([2H])NC(=O)c1nnc(NC(=O)C2CC2)cc1Nc1cccc(-c2nc(CN3CCN(C(=O)CC#N)CC3=O)no2)c1OC` [Example 139] to `[2H]C([2H])([2H])NC(=O)c1nnc(NC(=O)C2CC2)cc1Nc1cccc(-c2nc(CN3CCN(S(C)(=O)=O)CC3=O)no2)c1OC` [Example 141], the pIC50 rises from 6.39 to 6.62 (0.23 log units). The second is the more potent here.

Going from `[2H]C([2H])([2H])NC(=O)c1nnc(NC(=O)C2CC2)cc1Nc1cccc(-c2nc(CNC(=O)OC(C)(C)C)no2)c1OC` [Example 142] to `[2H]C([2H])([2H])NC(=O)c1nnc(NC(=O)C2CC2)cc1Nc1cccc(-c2nc(CNC(C)=O)no2)c1OC` [Example 145], the pIC50 rises from 5.27 to 6.57 (1.30 log units).
